“And” between values parts separate entries of the source, which are not always exact repeats. Equal values may be shown once.
Test system: Leishmania donovani
Assay: Leishmania intramacrophage assay
Type: functional, organism-based
Conditions: not given

Structure (SMILES)	pIC50
N#CC1CCCN(c2nc(-c3ccccc3)nc3c2CCNCC3)C1 (centres undefined)	4.667
CC(C)C[C@H](N)COc1cccc(F)c1Oc1ccccc1	4.696
COc1ccccc1CN(C)C(=O)CN1CC(n2nc(C)cc2C)C1	4.762
Cc1nc2c(c(NCc3ccc(-c4ccccn4)s3)n1)CCNCC2	4.913
CC(C)Nc1nc2c(c(NC3CC3)n1)CCN(C1CCOCC1)CC2	4.789
Cc1nc(C2(O)CCCNCC2)sc1CCOc1ccccc1.Cl (centres undefined)	4.482
CCc1nc2c(N3CCC4(CC3)CC(=O)N(CC(C)C)C4)ncnc2o1	4.305
Cn1ncc2c(N3CCCC4(CCNC4)C3)nc(C(C)(C)C)nc21 (centres undefined)	4.611 and 4.922
CCc1ccc(CN2CCC3(CC2)CC(N2CCN(C)CC2)CO3)cc1.O=C(O)C(F)(F)F (centres undefined)	4.908 and 5.404
Cc1nc2c(c(NCC(O)c3ccccc3Cl)n1)CCNCC2 (centres undefined)	4.337
Cc1c(CN2CC[C@@H](N3CCC(O)CC3)[C@H](O)C2)[nH]c2ccc(Cl)cc12	4.995
CC(C)COc1cccc(-c2nc3c([nH]2)CCNC3)c1	4.688
COc1cccc(Nc2nc(-c3ccncc3)nc3c2CNCC3)c1.Cl	4.645 and 4.976
COCC(=O)Nc1ccnn1-c1ccc(Cl)cc1	4.861
NCC1Cc2cc(Cl)cc(-c3cncc(C(=O)N4CCCCC4)n3)c2O1 (centres undefined)	4.491
COc1ccc(-c2cc(CNc3ncnc4c3CCNCC4)no2)cc1	4.744

Same assay, conditions: Leishmania donovani

Structure (SMILES)	IC50 [µM]
Cc1sc2nc(CCN)nc(N3CCS(=O)(=O)CC3)c2c1C	> 50.1
O=C(O)CN1CCC(F)(F)C2(CCN(c3ccccn3)C2)C1 (centres undefined)	> 50.1
O=C(NCCCN1CCOCC1)c1ccc(-n2ccc3ccccc32)s1	15.8
N#CC1CCCN(c2nc(-c3ccccc3)nc3c2CCNCC3)C1 (centres undefined)	20.6
O=C(NCC(F)(F)F)c1ccncc1	> 50.1
Cc1nccn1CCCn1cncc1-c1ccc2c(c1)CCCN2C	> 50.1
Cc1ccc(N2CCC3(CN(Cc4ccncc4)CCC3(F)F)C2)nn1 (centres undefined)	> 50.1
CN1CCN(C2COC3(CCN(Cc4ccc(F)cc4)CC3)C2)CC1 (centres undefined)	> 50.1
CN(CC1CC1)c1ccc2ccc(C(=O)NCCc3ccccc3)cn12	> 50.1
CCN(CC)c1ccc2ccc(C(=O)N3CCCCO3)cn12	24.4
Cn1nnc2c(sc3nc(N4CCOCC4)c4c(c32)CCC4)c1=O	> 50.1
COc1ccc(CNc2cnn(C)c(=O)c2Cl)cc1	> 50.1
CCCn1nnc2c(sc3nc(N4CCOCC4)c4c(c32)CCC4)c1=O	> 50.1
c1cc(CN2CCC3(CC2)CC(N2CCCC2)CO3)co1 (centres undefined)	> 50.1
C1CCc2nnc(CNc3nc(C4CC4)nc4c3CCNCC4)n2CC1	> 50.1
CC(C)C[C@H](N)COc1cccc(F)c1Oc1ccccc1	12.5
Cc1sc2nc(C(F)(F)F)nc(N3CCN(S(C)(=O)=O)CC3)c2c1C	> 50.1
Cc1sc2nc(C(F)(F)F)nc(N3CCC(NS(C)(=O)=O)CC3)c2c1C	> 50.1
CCN1CCC2(C=C(C(=O)N(C)C)c3ccccc32)CC1	> 50.1
Cc1nn(C)cc1-c1cc(C(F)F)nc2sc(C(N)=O)c(N)c12	> 50.1
CC(NC(=O)NCCCn1ccnc1)c1ccc2c(c1)OCCCO2 (centres undefined)	> 50.1
Cc1sc2nc(CCN)nc(N3CCN(S(C)(=O)=O)CC3)c2c1C	> 50.1
COc1ccccc1CN(C)C(=O)CN1CC(n2nc(C)cc2C)C1	19.1
Cc1nc(NCc2noc(C3CCCO3)n2)c2ccsc2n1 (centres undefined)	> 50.1
COc1ccc(C(NCc2cccc(C#N)c2)C2CC2)cc1 (centres undefined)	> 50.1

Structure (SMILES)	IC50 [µM]
Cc1sc2nc(C(F)(F)F)nc(N3CCN(C)CC3)c2c1C	> 50.1
Cc1nc2c(c(NCc3ccc(-c4ccccn4)s3)n1)CCNCC2	17.9
Cc1nc2c(c(NCCc3nc4c(s3)CCCC4)n1)CCNCC2	44.3
CC(C)Nc1nc2c(c(NC3CC3)n1)CCN(C1CCOCC1)CC2	13
CN(c1ncnc2sccc12)C1CCCN(c2cccnn2)C1 (centres undefined)	> 50.1
O=C(CC1CCCCC1)N1CCC(c2ncc3c(n2)CCNC3)CC1	> 50.1
CCOCCN1CCN(CC(O)c2ccc(OC)cc2)CC1 (centres undefined)	> 50.1
O=C1NCCCC12CCN(c1nc3c(c(C(F)(F)F)n1)CCCC3)C2 (centres undefined)	> 50.1
CCn1cnnc1CNc1nc(C)nc2scc(CC(C)C)c12	> 50.1
CN(Cc1ccncc1)C1COC2(CCN(Cc3ccccn3)CC2)C1 (centres undefined)	> 50.1
FC1(F)CCN(Cc2ccccn2)CC12CCN(c1ncccn1)C2 (centres undefined)	> 50.1
OCc1ccncc1NCc1cnc(-c2ccccn2)s1	> 50.1
O=C(c1c[nH]cn1)N1CCC(F)(F)C2(CCN(c3ncccn3)C2)C1 (centres undefined)	> 50.1
CCn1cc(-c2cc(C(F)F)nc3sc(C(N)=O)c(N)c23)c(C)n1	> 50.1
CN(Cc1ccncc1)C1COC2(CCN(Cc3ccco3)CC2)C1 (centres undefined)	> 50.1
Cc1nc(C2(O)CCCNCC2)sc1CCOc1ccccc1.Cl (centres undefined)	24.2
CCN(CC)c1ccc2ccc(C(=O)NC3CC3)cn12	> 50.1
CC(=O)N1CCN(c2nc(C(F)(F)F)nc3sc(C)c(C)c23)CC1	> 50.1
FC1(F)CCN(Cc2ccncc2)CC12CCN(Cc1ccccn1)C2 (centres undefined)	> 50.1
CCc1nc2c(N3CCC4(CC3)CC(=O)N(CC(C)C)C4)ncnc2o1	> 50.1
CCOc1ccc(CNCCCn2ccnc2)cc1OC	> 50.1
c1ccc(C2CCN(c3cncc(-n4cccn4)n3)CC2)cc1	> 50.1
O=C(CO)N1CCC(F)(F)C2(CCN(c3ccccc3)C2)C1 (centres undefined)	> 50.1
CN(C)C1COC2(CCN(Cc3ccc4c(c3)OCO4)CC2)C1 (centres undefined)	> 50.1
Cc1nnc(NCC2(c3ccc(Cl)cc3Cl)CCOCC2)c(C#N)c1C	> 50.1

Structure (SMILES)	IC50 [µM]
Cc1cc(C(F)(F)F)nc(N(C)Cc2c(C)noc2C)n1	> 50.1
NC(=O)C1CCN(c2cncc(-n3cccn3)n2)CC1	> 50.1
CCOc1ccc(CNCC(O)c2ccccc2)cc1Cl (centres undefined)	29.6
Cc1nc(N2C[C@@H](CN3CCCN(C)CC3)[C@@H](CO)C2)c2ccsc2n1	> 50.1
COCCN(Cc1sccc1C)c1nc(C)nc2sccc12	> 50.1
Cc1cnc(N2CCc3onc(COc4cccnc4)c3C2)nc1	> 50.1
NS(=O)(=O)NCC1(c2ccccc2Br)CC1	> 50.1
Cn1ccnc1CN1CCC(F)(F)C2(CCN(c3cnccn3)C2)C1 (centres undefined)	> 50.1
Cc1c(C(=O)O)sc2nc(Cc3ccccc3)nc(N)c12	> 50.1
Cc1ccc(-c2ncc(CNc3cnccc3CO)s2)cc1	> 50.1
Cc1nc2c(c(NCC(O)c3ccccc3Cl)n1)CCNCC2 (centres undefined)	44.8
Cc1sc2nc(CCN)nc(N(CCN(C)C)CC3CCCO3)c2c1C (centres undefined)	> 50.1
Cn1cc(CN2CCC(F)(F)C3(CCN(c4ncccn4)C3)C2)cn1 (centres undefined)	> 50.1
c1cnc(-c2nc(CN3CCC(c4ccn[nH]4)CC3)cs2)nc1	> 50.1
CC(C)CC(=O)N1CCN(Cc2csc(-c3ncccn3)n2)CC1	> 50.1
CC(NCc1ccsc1)c1ccc2c(c1)NC(=O)CO2 (centres undefined)	> 50.1
N#Cc1cccc(CNC(=O)C2=NN(c3ccccc3)C(=O)CN2)c1	> 50.1
CC(C)OCCN1CCC(N2CCN(C)C2=O)CC1	> 50.1
CCCC(=O)N1CCC(c2ncc3c(n2)CCNC3)CC1	> 50.1
CCC(=O)N1CCC(c2ncc3c(n2)CCNC3)CC1	> 50.1
Cc1ccc(N2CCCC(NCc3cscn3)C2)nn1 (centres undefined)	> 50.1
CCC(=O)N1CCC2(C=C(C(=O)N(C)C)c3ccccc32)CC1	> 50.1
COc1ccc(CNC(=O)C2=NN(c3ccc(C)cc3)C(=O)CN2)cc1	> 50.1
Cc1c(CN2CC[C@@H](N3CCC(O)CC3)[C@H](O)C2)[nH]c2ccc(Cl)cc12	10.7
CC(C)COc1cccc(-c2nc3c([nH]2)CCNC3)c1	19.2

Structure (SMILES)	IC50 [µM]
CC(=O)c1sc2nc3c(c(C(F)(F)F)c2c1N)CN(C(C)=O)CC3	> 50.1
CCN1CC(C(=O)NCc2ccc3c(c2)nc(C)n3C)CCC1=O (centres undefined)	> 50.1
Cc1ccc(CN2CCC(F)(F)C3(CCN(c4cnccn4)C3)C2)o1 (centres undefined)	> 50.1
CN1CCN(c2ccc3ccc(C(=O)N4CCCO4)cn23)CC1	> 50.1
COc1ncccc1CNC(=O)C1=NN(c2ccccc2)C(=O)CN1	> 50.1
Cc1nn(C)cc1-c1cc(C(F)(F)F)nc(NC2CCN(C)CC2)n1	> 50.1
Cc1sc2nc(CCN)nc(N3CC(N4CCCCC4)C3)c2c1C	23.7
CS(=O)(=O)N1CCN(Cc2csc(-c3ncccn3)n2)CC1	> 50.1
CC(NC(=O)Cn1ccnc1)c1ccc(OCC2CC2)c(F)c1 (centres undefined)	> 50.1
COCC(=O)Nc1ccnn1-c1ccc(Cl)cc1	13.5
O=C(O)C1CCCN1c1nc(-c2ccc(Cl)cc2)cc(C(F)(F)F)n1 (centres undefined)	> 50.1
CN(Cc1ccncc1)C1COC2(CCN(Cc3cccs3)CC2)C1 (centres undefined)	> 50.1
Cc1sc2nc(CCN)nc(N3CCC(N4CCCC4)CC3)c2c1C	> 50.1
COc1ccc(OCCc2sc(C3(O)CCCNCC3)nc2C)cc1 (centres undefined)	> 50.1
O=C(c1cnccn1)N1CCC(F)(F)C2(CCN(c3ccccn3)C2)C1 (centres undefined)	> 50.1
Cc1ccc(N2CCC3(CN(CCO)CCC3(F)F)C2)nn1 (centres undefined)	> 50.1
c1nc(CCNc2nc(C3CC3)nc3c2CCNCC3)c[nH]1	> 50.1
CO[C@H]1[C@@H]2CC[C@H]1CN(c1nc(C)nc3sccc13)C2	> 50.1
NCC1Cc2cc(Cl)cc(-c3cncc(C(=O)N4CCCCC4)n3)c2O1 (centres undefined)	20.8
COc1ccc(-c2cc(CNc3ncnc4c3CCNCC4)no2)cc1	22.5
O=C(c1c[nH]cn1)N1CCC(F)(F)C2(CCN(c3cnccn3)C2)C1 (centres undefined)	> 50.1
Cc1cc(N(C)CC2COc3ccccc3O2)nc(N)n1 (centres undefined)	> 50.1
O=C(c1ccc2ccc(N3CCN(CC4CC4)CC3)n2c1)N1CCCO1	> 50.1

Source: ChEMBL document CHEMBL3988442, “University of Dundee, Small-Polar-MMV Screening Library” (2021)
